Data reported in patent US10793520B2, “Sulfonylaminobenzamide compound and pest control agent” (Nippon Soda Co., Ltd., priority 2016, dated 2020).

System: Mythimna separata
Assay: Efficacy test against Mythimna separata (treated artificial feed)
Conditions: in vivo
Procedure: Five parts of the compound of the present invention, 93.6 parts of dimethylformamide and 1.4 parts of a polyoxyethylene alkyl aryl ether were mixed together and dissolved to obtain an emulsion (1) containing 5% of the active constituent.
The mortality rate was calculated using the following equation. Mortality rate (%)=(number of dead pests/number of test pests)×100
First, 0.8 g of an artificial feed (Insecta LFS, manufactured by Nosan Corporation) and 1 μl of the emulsion (I) were mixed thoroughly, and 0.2 g of the resulting mixture was placed in each of the treatment areas of a plastic test container (volume: 1.4 ml) to complete preparation of a test feed.
Two second-instar larvae of Mythimna separata were inoculated into each treatment area, and the test container was sealed with a plastic lid. The sealed container was placed in a temperature-controlled room at 25° C., and the mortality rate and the amount of feed consumed were determined on the fifth day. The test was repeated. Further, a test performed under the same conditions, but with the exception of excluding the compound of the present invention from the emulsion (1), was used as a control.

Compound	mortality rate against Mythimna separata, or amount of feed consumed relative to control
CC(C)C(NC(=O)c1ccc(C(F)(F)F)cc1NS(=O)(=O)C(F)(F)F)c1ccc(Cl)cc1 (racemic) [b-3]	100%, or the amount of feed consumed was 10% or less
O=C(Nc1cc(C(F)(F)F)cc(C(F)(F)F)c1)c1ccc(Cl)cc1NS(=O)(=O)C(F)(F)F [a-1]	100%, or the amount of feed consumed was 10% or less
O=C(Nc1ccc(F)c(C(F)(F)F)c1)c1ccc(C(F)(F)F)cc1NS(=O)(=O)C(F)(F)F [a-2]	100%, or the amount of feed consumed was 10% or less
O=C(Nc1cc(C(F)(F)F)cc(C(F)(F)F)c1)c1ccc(C(F)(F)F)cc1NS(=O)(=O)C(F)(F)F [a-3]	100%, or the amount of feed consumed was 10% or less
O=C(Nc1ccc(C(F)(F)F)cc1)c1ccc(C(F)(F)F)cc1NS(=O)(=O)C(F)(F)F [a-4]	100%, or the amount of feed consumed was 10% or less
O=C(Nc1ccc(C(F)(F)F)cc1Cl)c1ccc(C(F)(F)F)cc1NS(=O)(=O)C(F)(F)F [a-7]	100%, or the amount of feed consumed was 10% or less
O=C(Nc1ccc(C(F)(F)F)cn1)c1ccc(C(F)(F)F)cc1NS(=O)(=O)C(F)(F)F [a-8]	100%, or the amount of feed consumed was 10% or less
O=C(Nc1ccc(C(F)(F)F)c(Cl)c1)c1ccc(C(F)(F)F)cc1NS(=O)(=O)C(F)(F)F [a-10]	100%, or the amount of feed consumed was 10% or less
O=C(Nc1cc(C(F)(F)F)ccc1F)c1ccc(C(F)(F)F)cc1NS(=O)(=O)C(F)(F)F [a-11]	100%, or the amount of feed consumed was 10% or less
O=C(Nc1cccc(OC(F)(F)F)c1)c1ccc(C(F)(F)F)cc1NS(=O)(=O)C(F)(F)F [a-12]	100%, or the amount of feed consumed was 10% or less
Cc1ccc(NC(=O)c2ccc(C(F)(F)F)cc2NS(=O)(=O)C(F)(F)F)cc1 [a-13]	100%, or the amount of feed consumed was 10% or less
O=C(Nc1ccc(Cl)cc1)c1ccc(C(F)(F)F)cc1NS(=O)(=O)C(F)(F)F [a-14]	100%, or the amount of feed consumed was 10% or less
O=C(Nc1ccc(OC(F)(F)F)cc1)c1ccc(C(F)(F)F)cc1NS(=O)(=O)C(F)(F)F [a-15]	100%, or the amount of feed consumed was 10% or less
O=C(Nc1ccc(F)c(C(F)(F)F)c1)c1cc(F)c(F)cc1NS(=O)(=O)C(F)(F)F [a-16]	100%, or the amount of feed consumed was 10% or less
O=C(Nc1c(Cl)cc(C(F)(F)F)cc1Cl)c1ccc(C(F)(F)F)cc1NS(=O)(=O)C(F)(F)F [a-18]	100%, or the amount of feed consumed was 10% or less
O=C(Nc1ncc(C(C(F)(F)F)C(F)(F)F)s1)c1ccc(C(F)(F)F)cc1NS(=O)(=O)C(F)(F)F [a-19]	100%, or the amount of feed consumed was 10% or less
Cc1cc(C(F)(C(F)(F)F)C(F)(F)F)ccc1NC(=O)c1ccc(C(F)(F)F)cc1NS(=O)(=O)C(F)(F)F [a-20]	100%, or the amount of feed consumed was 10% or less
CN(c1cc(C(F)(F)F)ccc1C(=O)Nc1ccc(F)c(C(F)(F)F)c1)S(=O)(=O)C(F)(F)F [a-21]	100%, or the amount of feed consumed was 10% or less
O=C(Nc1ccc(Cl)c(Cl)c1)c1ccc(C(F)(F)F)cc1NS(=O)(=O)C(F)(F)F [a-22]	100%, or the amount of feed consumed was 10% or less
O=C(Nc1ncc(C(F)(F)F)cc1Cl)c1ccc(C(F)(F)F)cc1NS(=O)(=O)C(F)(F)F [a-23]	100%, or the amount of feed consumed was 10% or less
O=C(Nc1ccc(OC(F)(F)F)cc1)c1ccc(OC(F)(F)F)cc1NS(=O)(=O)C(F)(F)F [a-24]	100%, or the amount of feed consumed was 10% or less
O=C(Nc1ccc(S(F)(F)(F)(F)F)cc1)c1ccc(C(F)(F)F)cc1NS(=O)(=O)C(F)(F)F [a-28]	100%, or the amount of feed consumed was 10% or less
O=C(Nc1ccc(OC(F)(F)F)cc1)c1ccc(Br)cc1NS(=O)(=O)C(F)(F)F [a-29]	100%, or the amount of feed consumed was 10% or less

Compound	mortality rate against Mythimna separata, or amount of feed consumed relative to control
O=C(Nc1ccc(OC(F)(F)F)cc1)c1ccc(C(F)(F)F)cc1NS(=O)(=O)CC(F)(F)F [a-30]	100%, or the amount of feed consumed was 10% or less
O=C(Nc1ccc(OC(F)(F)F)cc1)c1ccc(-n2cncn2)cc1NS(=O)(=O)C(F)(F)F [a-31]	100%, or the amount of feed consumed was 10% or less
O=C(Nc1ccc(OC(F)(F)F)cc1)c1ccc(-c2ccc(Cl)nc2)cc1NS(=O)(=O)C(F)(F)F [a-32]	100%, or the amount of feed consumed was 10% or less
O=C(Nc1ccc(OC(F)(F)F)cc1)c1ccc(C(F)(F)F)cc1NS(=O)(=O)C(F)F [a-33]	100%, or the amount of feed consumed was 10% or less
O=C(Nc1ccc(OC(F)(F)F)cc1)c1ccc(-c2ccc(C(F)(F)F)nc2)cc1NS(=O)(=O)C(F)(F)F [a-34]	100%, or the amount of feed consumed was 10% or less
O=C(Nc1ccc(OC(F)(F)F)cc1)c1ccc(-c2ccc(C(F)(F)F)cc2)cc1NS(=O)(=O)C(F)(F)F [a-35]	100%, or the amount of feed consumed was 10% or less
N#Cc1ccc(C(=O)Nc2ccc(C(F)(F)F)cc2)c(NS(=O)(=O)C(F)(F)F)c1 [a-36]	100%, or the amount of feed consumed was 10% or less
N#Cc1ccc(NC(=O)c2ccc(C(F)(F)F)cc2NS(=O)(=O)C(F)(F)F)cc1C(F)(F)F [a-37]	100%, or the amount of feed consumed was 10% or less
N#Cc1ccc(C(=O)Nc2ccc(C(F)(F)F)cc2)c(NS(=O)(=O)CC(F)(F)F)c1 [a-38]	100%, or the amount of feed consumed was 10% or less
N#Cc1ccc(NC(=O)c2ccc(C(F)(F)F)cc2NS(=O)(=O)C(F)(F)F)cc1 [a-39]	100%, or the amount of feed consumed was 10% or less
N#Cc1ccc(NC(=O)c2ccc(C#N)cc2NS(=O)(=O)C(F)(F)F)cc1 [a-40]	100%, or the amount of feed consumed was 10% or less
O=C(Nc1ccc(F)c(C(F)(F)F)c1)c1ccc(Cl)cc1NS(=O)(=O)C(F)(F)F [a-41]	100%, or the amount of feed consumed was 10% or less
O=C(Nc1ccc(OC(F)(F)F)cc1)c1ccc(-c2ccc(C(F)(F)F)cc2Cl)cc1NS(=O)(=O)C(F)(F)F [a-42]	100%, or the amount of feed consumed was 10% or less
COC(=O)c1cc(Br)ccc1NC(=O)c1ccc(C(F)(F)F)cc1NS(=O)(=O)C(F)(F)F [a-49]	100%, or the amount of feed consumed was 10% or less
O=C(Nc1ccc([N+](=O)[O-])cc1)c1ccc(C(F)(F)F)cc1NS(=O)(=O)C(F)(F)F [a-50]	100%, or the amount of feed consumed was 10% or less
N#Cc1cc(Cl)ccc1NC(=O)c1ccc(C(F)(F)F)cc1NS(=O)(=O)C(F)(F)F [a-51]	100%, or the amount of feed consumed was 10% or less
N#Cc1ccc(NC(=O)c2ccc(C(F)(F)F)cc2NS(=O)(=O)C(F)(F)F)c(F)c1 [a-53]	100%, or the amount of feed consumed was 10% or less
O=C(Nc1ccc(C(F)(F)F)cc1F)c1ccc(C(F)(F)F)cc1NS(=O)(=O)C(F)(F)F [a-54]	100%, or the amount of feed consumed was 10% or less
O=C(Nc1ccc(Cl)cc1C(F)(F)F)c1ccc(C(F)(F)F)cc1NS(=O)(=O)C(F)(F)F [a-55]	100%, or the amount of feed consumed was 10% or less
O=C(Nc1ccnc(OCC(F)(F)F)c1)c1ccc(C(F)(F)F)cc1NS(=O)(=O)C(F)(F)F [a-56]	100%, or the amount of feed consumed was 10% or less
COC(=O)c1cc(F)ccc1NC(=O)c1ccc(C(F)(F)F)cc1NS(=O)(=O)C(F)(F)F [a-57]	100%, or the amount of feed consumed was 10% or less
COC(=O)c1cc(C(F)(F)F)ccc1NC(=O)c1ccc(C(F)(F)F)cc1NS(=O)(=O)C(F)(F)F [a-58]	100%, or the amount of feed consumed was 10% or less
CCOc1cc(C(F)(F)F)ccc1NC(=O)c1ccc(C(F)(F)F)cc1NS(=O)(=O)C(F)(F)F [a-59]	100%, or the amount of feed consumed was 10% or less
